Measured values published in patent US6673902B2, “Cyclin D binding factor, and uses thereof” (St. Jude Children's Research Hospital, priority 1996, dated 2004).

What was measured:
wild-type MEFs = experiment: Apoptosis assay in wild-type MEFs deprived of serum; assay type: cell-based, mouse
Protocol: Apoptosis assays. Wild-type MEFs infected with the indicated retroviruses for 36 hours were starved for serum for 24 hours. Viability was determined by trypan blue dye exclusion, and DNA fragmentation was monitored by a terminal deoxynuclectidyl transferase (FACS-TUNEL) assay and by measurement of subdiploid DNA content of propidium iodide-stained nuclei [Zindy et al., Genes Dev. 12:2424-2433 (1998)].
On the other hand, MEFs overexpressing c-Myc, E2F-1, or E1A are exquisitely sensitive to apoptosis. […] 12:2424-2433 (1998); De Stanchina et al., Genes Dev. 12:2434-2442 (1998)].

[1] = tested on: 281 bp ARF promoter fragment; experiment: Transactivation of ARF promoter-luciferase reporter in NIH-3T3 cells; assay type: cell-based, mouse; conditions: NIH-3T3, 281 bp ARF promoter fragment-luciferase
Protocol: Transactivation assays. NIH-3T3 cells were transfected with 4 μg of pGL2-ARFpro BamHI or its DMP1 binding site mutant, with or without increasing amount of pFLEX-DMP1, pEVRFO-Ets1, pCMV-Ets2, pRcRSV-Elfl, pdEB-Fli1, p(IEB-EWS-Fli1 or pCMV-E2F-1 (89-437), and 4 μg β-actin SEAP control vectors [Inoue and Sherr, Mol. Cell. Biol. 18: 1590-1600 (1998); Inoue et al., J. Biol. Chem. 273:29188-29194 (1998); Davis and Roussel, Gene 171:265-269 (1996); Baily et al., Mol. Cell. Biol. 14:3230-3241 (1994)]. Transfections and normalization of luciferase levels with internal control SEAP levels were performed as described [Inoue and Sherr, Mol. Cell. Biol. 18:1590-1600 (1998)].
Similarly, DMP1 deletion mutants defective in transactivation [Inoue and Sherr, Mol. Cell. […] Mutation of the DMP1 binding site within the ARF promoter [changing CCCGGATGC, (SEQ ID NO:33) to CCCGTCGAC, (SEQ ID NO:42)] also completely abolished transactivation by wild-type DMP1 (FIG. 14C, mutant reporter). Therefore, sequences within the −189 to −181 ARF promoter segment were the only ones responsible for DMP1-mediated transactivation. Although Ets1 could bind to a 23 base pair oligonucleotide containing the DMP1 consensus site (FIG. 14B), several Ets proteins were unable to induce significant reporter gene expression from the more complex 281 base pair ARF promoter (FIG. 14C). […]

recombinant DMP1 = biological target: T1, recombinant DMP1 (Mus musculus, UniProt Q8CE22); experiment: EMSA competition, recombinant DMP1 and 281 base pair ARF promoter fragment; assay type: binding; conditions: 200-fold excess of unlabelled oligonucleotide
T1 construct: made in house; host or cells: Sf9 insect cells, pAcYM1 baculovirus vector; used as crude lysate (~4 ng DMP1 per reaction)
T1 sequence (Q8CE22 1-761): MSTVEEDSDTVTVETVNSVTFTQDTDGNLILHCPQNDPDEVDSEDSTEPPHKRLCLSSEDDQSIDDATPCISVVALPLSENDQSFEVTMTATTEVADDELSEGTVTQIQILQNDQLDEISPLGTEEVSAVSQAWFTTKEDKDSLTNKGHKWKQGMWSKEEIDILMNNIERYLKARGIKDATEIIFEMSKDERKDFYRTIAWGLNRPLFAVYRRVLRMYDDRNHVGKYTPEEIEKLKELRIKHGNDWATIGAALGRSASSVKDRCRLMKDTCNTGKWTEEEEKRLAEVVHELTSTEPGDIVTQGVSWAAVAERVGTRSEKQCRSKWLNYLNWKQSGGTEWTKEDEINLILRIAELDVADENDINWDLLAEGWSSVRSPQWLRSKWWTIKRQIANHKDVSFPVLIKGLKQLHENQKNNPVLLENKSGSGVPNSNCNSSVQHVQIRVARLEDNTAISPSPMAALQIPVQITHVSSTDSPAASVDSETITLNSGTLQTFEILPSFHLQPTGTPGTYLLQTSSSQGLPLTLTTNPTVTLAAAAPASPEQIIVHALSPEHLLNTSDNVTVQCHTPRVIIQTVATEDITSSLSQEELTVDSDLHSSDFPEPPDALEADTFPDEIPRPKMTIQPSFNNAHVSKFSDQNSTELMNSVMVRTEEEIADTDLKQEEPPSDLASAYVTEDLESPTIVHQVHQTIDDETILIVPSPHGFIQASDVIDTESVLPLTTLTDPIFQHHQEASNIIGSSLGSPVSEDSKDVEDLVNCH
Protocol: Electrophoretic mobility shift assay (EMSA). Recombinant DMP1 protein was prepared in Sf9 cells [Hirai and Sherr, Mol. Cell. Biol. 16:6457-6467 (1996)]. Purified bacterial proteins representing the Ets1 DNA binding domain or full-length Ets1 [Inoue, et al., J. Biol. Chem. 273:29188-29194 (1998)] were used. EMSAs were performed [Inoue and Sherr, Mol. Cell. Biol. 18:1590-1600 (1998)] using either a 281-bp genomic fragment (−225 to +56) or double-stranded oligonucleotides containing the DMP1/Ets site obtained by annealing oligonucleotide 5′-[…]-3′ (sense strand SEQ ID NO:41); DMP1/Ets consensus sequence underlined) with a complementary antisense strand. For competition experiments, a 200-fold excess of unlabelled oligonucleotides was added to reaction mixtures before the probe. To verify the identity of the proteins in shifted complexes, reaction mixtures were incubated with control nonimmune rabbit serum (NRS), serum AF [Hirai and Sherr, Mol. Cell. Biol. 16:6457-6467 (1996)] and M-10 (both to DMP1 carboxylterminal epitopes), S-19 (DMP1 N-terminus), or C-20 (Ets1 C-terminus) before electrophoresis. M-10, S-19, and C-20 were from Santa Cruz Biotechnology.
The nucleotide sequence of the proximal promoter region of the murine ARF gene relative to the transcription initiation site as defined by S1 mapping analysis was determined (FIG. 13). […]

Substance | apoptosis / cell death (wild-type MEFs) | ARF promoter reporter gene expression [1] | competition for DMP1 binding to the 281 base pair ARF promoter fragment (recombinant DMP1)
DMP1: murine cyclin D-associated myb-like transcription factor, 761 amino acids, SEQ ID NO:1 | did not trigger apoptosis | enhanced reporter gene expression | –
M3: DMP1 deletion mutant (NcoI), amino acids 1-458 of SEQ ID NO:1 | – | – | did not compete
